Reference: publication PMC10999543, “Identification of kinase modulators as host-directed therapeutics against intracellular methicillin-resistant Staphylococcus aureus” (Frontiers in Cellular and Infection Microbiology, 2024)
Read-outs that look alike come from different tables or passages of the source.

What was measured:
intracellular MRSA = format: cell-based, Staphylococcus aureus; conditions: for %GFP+ rep 1 / z-scoreMRSA+ rep 1: replicate 1; for %GFP+ rep 2 / z-scoreMRSA+ rep 2: replicate 2; for %GFP+ rep 3 / z-scoreMRSA+ rep 3: replicate 3; for z-scoreMRSA+ mean: mean of 3 replicates
In short: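 HeLa cells infected with GFP-MRSA (MOI ~6.8), gentamicin-cleared, then incubated overnight at 37°C with inhibitors plus 5 µg/ml gentamicin; DMSO as negative control, triplicates. Flow cytometry gave % GFP-positive cells and cell count (viability surrogate); hits by plate z-score (MRSA ≤ -2, HeLa count ≥ -3).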

HeLa cells = experiment: Compound screen by flow cytometry: HeLa cell count as surrogate readout of cell viability (z-scoreHeLa); format: cell-based, human; conditions: for cell count rep 1 / z-scoreHeLa rep 1: replicate 1; for cell count rep 2 / z-scoreHeLa rep 2: replicate 2; for cell count rep 3 / z-scoreHeLa rep 3: replicate 3; for z-scoreHeLa mean: mean of 3 replicates
In short: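 HeLa cells were infected with GFP-MRSA (mean MOI 6.8 ± 4.6) for 1 h, and extracellular bacteria were killed with 30 µg/ml gentamicin. Cells were then incubated overnight with kinase inhibitors in 5 µg/ml gentamicin, in triplicate against DMSO controls. Flow-cytometric cell count served as a viability surrogate, expressed as a plate z-score.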

[1] = PKIS compounds raw data, MRSA-infected HeLa cells
[2] = Yes/No: effect without cell death
[3] = compound screen, MRSA-infected HeLa cells
[4] = PKIS compounds raw data, HeLa cell count
[5] = compound screen, HeLa cell count
[6] = PKIS compound screen raw data, MRSA-infected HeLa cells
[7] = PKIS compound screen, MRSA-infected HeLa cells
[8] = PKIS compound screen, Yes/No call (effect without cell death)
[9] = PKIS compound screen, Yes/No call on z-scoreMRSA+
[10] = PKIS compound screen raw data, HeLa cell count
[11] = PKIS compound screen, HeLa cell count
[12] = PKIS compound screen, Yes/No call on z-scoreHeLa
[13] = PKIS compound screen, Yes/No call

Structure (SMILES)	%GFP+ rep 1 (intracellular MRSA; [1])	%GFP+ rep 2 (intracellular MRSA; [1])	%GFP+ rep 3 (intracellular MRSA; [1])	effect (intracellular MRSA; Yes/No call from z-scoreMRSA+)	hit (intracellular MRSA; [2])	z-scoreMRSA+ mean (intracellular MRSA; [3])	z-scoreMRSA+ rep 1 (intracellular MRSA; [3])	z-scoreMRSA+ rep 2 (intracellular MRSA; [3])	z-scoreMRSA+ rep 3 (intracellular MRSA; [3])	cell count rep 1 (HeLa cells; [4])	cell count rep 2 (HeLa cells; [4])	cell count rep 3 (HeLa cells; [4])	cell death (HeLa cells; Yes/No call from z-scoreHeLa)	%GFP+ rep 1 (intracellular MRSA; [6])	%GFP+ rep 2 (intracellular MRSA; [6])	%GFP+ rep 3 (intracellular MRSA; [6])	hit (intracellular MRSA; [8])	cell count rep 1 (HeLa cells; [10])	cell count rep 2 (HeLa cells; [10])	cell count rep 3 (HeLa cells; [10])	other results
Nc1nc(-c2ccc3c(c2)C(=Cc2cc(Br)c(O)c(Br)c2)C(=O)N3)cs1 [GW407323A]	16.4%	13.5%	13.8%	No	No	0.14	1.03	0.0015	-0.62	5658	5858	9419	No	–	–	–	–	–	–	–	z-scoreHeLa mean (HeLa cells; [5]): 1.06; z-scoreHeLa rep 1 (HeLa cells; [5]): 0.80; z-scoreHeLa rep 2 (HeLa cells; [5]): 1.20; z-scoreHeLa rep 3 (HeLa cells; [5]): 1.18
Cc1cc(-c2ccc3c(c2)CC[C@@H](N[C@@H](C)c2ccccc2)C3)cnc1N [GW412617A]	–	–	–	–	–	–	–	–	–	–	–	–	–	20.0%	21.4%	20.6%	No	42421	41709	47670	z-scoreMRSA+ mean (intracellular MRSA; [7]): 0.60; z-scoreMRSA+ rep 1 (intracellular MRSA; [7]): 0.68; z-scoreMRSA+ rep 2 (intracellular MRSA; [7]): 0.86; z-scoreMRSA+ rep 3 (intracellular MRSA; [7]): 0.25; effect (intracellular MRSA; [9]): No; z-scoreHeLa mean (HeLa cells; [11]): 1.94; z-scoreHeLa rep 1 (HeLa cells; [11]): 3.38; z-scoreHeLa rep 2 (HeLa cells; [11]): 1.29; z-scoreHeLa rep 3 (HeLa cells; [11]): 1.14; cell death (HeLa cells; [12]): No
O=C1Nc2ccc(-c3cccnc3)cc2C1=Cc1cc(Br)c(O)c(Br)c1 [GW429374A]	–	–	–	–	–	–	–	–	–	–	–	–	–	14.3%	14.7%	15.6%	No	24917	38643	50434	z-scoreMRSA+ mean (intracellular MRSA; [7]): -1.18; z-scoreMRSA+ rep 1 (intracellular MRSA; [7]): -1.13; z-scoreMRSA+ rep 2 (intracellular MRSA; [7]): -1.15; z-scoreMRSA+ rep 3 (intracellular MRSA; [7]): -1.27; effect (intracellular MRSA; [9]): No; z-scoreHeLa mean (HeLa cells; [11]): 1.01; z-scoreHeLa rep 1 (HeLa cells; [11]): 0.73; z-scoreHeLa rep 2 (HeLa cells; [11]): 0.72; z-scoreHeLa rep 3 (HeLa cells; [11]): 1.58; cell death (HeLa cells; [12]): No
Cc1cc(O)cc(C)c1/C=C/c1cncc(C(N)=O)c1 [GW435821X]	–	–	–	–	–	–	–	–	–	–	–	–	–	14.7%	15.8%	16.5%	No	9030	26110	32002	z-scoreMRSA+ mean (intracellular MRSA; [7]): -0.94; z-scoreMRSA+ rep 1 (intracellular MRSA; [7]): -1.00; z-scoreMRSA+ rep 2 (intracellular MRSA; [7]): -0.82; z-scoreMRSA+ rep 3 (intracellular MRSA; [7]): -1.00; effect (intracellular MRSA; [9]): No; z-scoreHeLa mean (HeLa cells; [11]): -1.55; z-scoreHeLa rep 1 (HeLa cells; [11]): -1.68; z-scoreHeLa rep 2 (HeLa cells; [11]): -1.62; z-scoreHeLa rep 3 (HeLa cells; [11]): -1.36; cell death (HeLa cells; [12]): No
c1ccc(-c2ccc3c(Nc4ccc5[nH]ccc5c4)ccnc3c2)nc1 [GW440138A]	35.0%	36.6%	38.8%	–	–	–	–	–	–	7521	7813	7928	–	–	–	–	No	–	–	–	effect (intracellular MRSA; [13]): No; z-scoreMRSA+ mean (intracellular MRSA; PKIS compound screen): 1.90; z-scoreMRSA+ rep 1 (intracellular MRSA; PKIS compound screen): 1.55; z-scoreMRSA+ rep 2 (intracellular MRSA; PKIS compound screen): 2.03; z-scoreMRSA+ rep 3 (intracellular MRSA; PKIS compound screen): 2.14; cell death (HeLa cells; [13]): No; z-scoreHeLa mean (HeLa cells; PKIS compound screen): 1.19; z-scoreHeLa rep 1 (HeLa cells; PKIS compound screen): 0.89; z-scoreHeLa rep 2 (HeLa cells; PKIS compound screen): 1.20; z-scoreHeLa rep 3 (HeLa cells; PKIS compound screen): 1.48
Cc1ccc(C(=O)Nc2ccc(Nc3ccnc4cc(-c5ccccn5)ccc34)cc2O)cc1 [GW440146A]	–	–	–	No	No	-1.16	-1.46	-1.12	-0.90	–	–	–	No	19.0%	18.0%	19.2%	–	4799	4726	6030	z-scoreHeLa mean (HeLa cells; [5]): 0.38; z-scoreHeLa rep 1 (HeLa cells; [5]): 0.32; z-scoreHeLa rep 2 (HeLa cells; [5]): 0.33; z-scoreHeLa rep 3 (HeLa cells; [5]): 0.50
Cn1cc(C=C2C(=O)Nc3cccnc32)c2ccccc21 [GW441756X]	12.3%	12.1%	11.5%	–	–	–	–	–	–	4844	4695	10080	–	–	–	–	No	–	–	–	effect (intracellular MRSA; [13]): No; z-scoreMRSA+ mean (intracellular MRSA; PKIS compound screen): -0.68; z-scoreMRSA+ rep 1 (intracellular MRSA; PKIS compound screen): -0.28; z-scoreMRSA+ rep 2 (intracellular MRSA; PKIS compound screen): -0.47; z-scoreMRSA+ rep 3 (intracellular MRSA; PKIS compound screen): -1.30; cell death (HeLa cells; [13]): No; z-scoreHeLa mean (HeLa cells; PKIS compound screen): 0.63; z-scoreHeLa rep 1 (HeLa cells; PKIS compound screen): 0.06; z-scoreHeLa rep 2 (HeLa cells; PKIS compound screen): 0.32; z-scoreHeLa rep 3 (HeLa cells; PKIS compound screen): 1.49
COc1ccccc1-c1cc(/C=C2\C(=O)Nc3ncc(Br)cc32)cc(Br)c1O [GW442130X]	14.9%	16.4%	14.1%	No	No	0.33	0.55	0.97	-0.53	3648	4731	6669	No	–	–	–	–	–	–	–	z-scoreHeLa mean (HeLa cells; [5]): -0.27; z-scoreHeLa rep 1 (HeLa cells; [5]): -1.02; z-scoreHeLa rep 2 (HeLa cells; [5]): 0.35; z-scoreHeLa rep 3 (HeLa cells; [5]): -0.14
CS(=O)(=O)CCNCc1nc(-c2ccc3ncnc(Nc4ccc(F)c(Cl)c4)c3c2)cs1 [GW461104A]	–	–	–	No	No	-0.31	-0.23	-0.46	-0.24	–	–	–	No	24.3%	20.7%	21.4%	–	1413	957	819	z-scoreHeLa mean (HeLa cells; [5]): -2.50; z-scoreHeLa rep 1 (HeLa cells; [5]): -2.12; z-scoreHeLa rep 2 (HeLa cells; [5]): -2.57; z-scoreHeLa rep 3 (HeLa cells; [5]): -2.79
Cc1c(O)cccc1Nc1ccnc2ccc(C(F)(F)F)cc12 [GW466413A]	–	–	–	No	No	-0.45	-0.69	0.0454	-0.69	–	–	–	No	22.3%	22.8%	19.9%	–	3244	2982	4313	z-scoreHeLa mean (HeLa cells; [5]): -0.80; z-scoreHeLa rep 1 (HeLa cells; [5]): -0.80; z-scoreHeLa rep 2 (HeLa cells; [5]): -1.02; z-scoreHeLa rep 3 (HeLa cells; [5]): -0.58
Cc1ccc(C(=O)Nc2ccc(Nc3ccnc4cc(-c5nccs5)ccc34)cc2O)cc1 [GW494702A]	21.0%	19.7%	18.9%	–	–	–	–	–	–	6577	7707	7965	–	–	–	–	No	–	–	–	effect (intracellular MRSA; [13]): No; z-scoreMRSA+ mean (intracellular MRSA; PKIS compound screen): -1.32; z-scoreMRSA+ rep 1 (intracellular MRSA; PKIS compound screen): -1.18; z-scoreMRSA+ rep 2 (intracellular MRSA; PKIS compound screen): -1.22; z-scoreMRSA+ rep 3 (intracellular MRSA; PKIS compound screen): -1.55; cell death (HeLa cells; [13]): No; z-scoreHeLa mean (HeLa cells; PKIS compound screen): 0.98; z-scoreHeLa rep 1 (HeLa cells; PKIS compound screen): 0.32; z-scoreHeLa rep 2 (HeLa cells; PKIS compound screen): 1.13; z-scoreHeLa rep 3 (HeLa cells; PKIS compound screen): 1.50
Cc1cc(NCC(c2ccccc2)c2ccccc2)nc(NCc2ccc(C(F)(F)F)cc2)n1 [GW497681X]	22.9%	19.6%	20.6%	–	–	–	–	–	–	2106	1381	2577	–	20.1%	18.7%	19.8%	No	17665	6230	5782	z-scoreMRSA+ mean (intracellular MRSA; [7]): -0.08; z-scoreMRSA+ rep 1 (intracellular MRSA; [7]): 0.35; z-scoreMRSA+ rep 2 (intracellular MRSA; [7]): -0.19; z-scoreMRSA+ rep 3 (intracellular MRSA; [7]): -0.39; effect (intracellular MRSA; [13]): No; effect (intracellular MRSA; [9]): No; z-scoreMRSA+ mean (intracellular MRSA; PKIS compound screen): -1.09; z-scoreMRSA+ rep 1 (intracellular MRSA; PKIS compound screen): -0.81; z-scoreMRSA+ rep 2 (intracellular MRSA; PKIS compound screen): -1.24; z-scoreMRSA+ rep 3 (intracellular MRSA; PKIS compound screen): -1.24; z-scoreHeLa mean (HeLa cells; [11]): -2.65; z-scoreHeLa rep 1 (HeLa cells; [11]): -2.12; z-scoreHeLa rep 2 (HeLa cells; [11]): -3.27; z-scoreHeLa rep 3 (HeLa cells; [11]): -2.56; cell death (HeLa cells; [13]): No; cell death (HeLa cells; [12]): No; z-scoreHeLa mean (HeLa cells; PKIS compound screen): -2.45; z-scoreHeLa rep 1 (HeLa cells; PKIS compound screen): -2.37; z-scoreHeLa rep 2 (HeLa cells; PKIS compound screen): -3.07; z-scoreHeLa rep 3 (HeLa cells; PKIS compound screen): -1.91
